Results from ChEMBL document CHEMBL5376009 (RSC Med Chem, 2024).
pEC50, pIC50: −log10 of the molar value.

How the values were obtained:
Influenza A virus [1] = assay: Antiviral activity against influenza A virus A/PR/8/34 (H1N1) infected in MDCK cells by plaque assay; format: functional, organism-based
[2] = Cytotoxicity against MDCK cells by MTS assay; format: toxicity, cell-based, Canis lupus familiaris; details: dog
HEK-293T = assay: Cytotoxicity against human HEK293T cells by MTS assay; format: functional
Influenza A virus [3] = assay: Antiviral activity against influenza A virus A/Guangdong/1/2009 (H1N1) infected in MDCK cells by plaque assay; format: functional, organism-based
A549 = assay: Cytotoxicity against human A549 cells by MTS assay; format: functional
Influenza A virus [4] = assay: Antiviral activity against influenza A virus A/Aichi/2/68 (H3N2) infected in MDCK cells by plaque assay; format: functional, organism-based
Influenza A virus [5] = assay: Antiviral activity against Influenza A virus A (H1N1); format: functional, organism-based
[6] = Cytotoxicity against MDCK cells; format: toxicity, cell-based, Canis lupus familiaris; details: dog
Neuraminidase = Neuraminidase (Influenza A virus, UniProt B4URF0); assay: Inhibition of influenza A virus neuraminidase
Sequence of Neuraminidase (B4URF0 whole entry): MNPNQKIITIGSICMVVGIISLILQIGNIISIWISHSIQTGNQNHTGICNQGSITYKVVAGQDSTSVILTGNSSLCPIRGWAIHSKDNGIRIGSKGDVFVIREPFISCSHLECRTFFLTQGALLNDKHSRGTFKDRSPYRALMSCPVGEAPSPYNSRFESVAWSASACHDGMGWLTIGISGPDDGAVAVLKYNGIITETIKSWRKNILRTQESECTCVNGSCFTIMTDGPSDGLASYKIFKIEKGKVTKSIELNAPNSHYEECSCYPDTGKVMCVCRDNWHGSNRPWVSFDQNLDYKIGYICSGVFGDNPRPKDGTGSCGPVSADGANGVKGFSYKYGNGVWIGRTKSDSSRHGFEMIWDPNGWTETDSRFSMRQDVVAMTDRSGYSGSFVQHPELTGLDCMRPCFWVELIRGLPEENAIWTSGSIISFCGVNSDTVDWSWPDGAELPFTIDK

Influenza A virus [7] = assay: Antiviral activity against influenza A virus A/California/07/2009 (H1N1) infected in MDCK cells assessed as reduction in cytopathic effect by DAPI staining based analysis; format: functional, organism-based
[8] = Cytotoxicity against HEK293T cells incubated for 48 hrs by Cell Titer-Glo assay; format: toxicity, cell-based, HEK-293T; details: human
Influenza A virus [9] = assay: Antiviral activity against influenza A virus A/Udorn/1972 (H3N2) infected in MDCK cells assessed as reduction in cytopathic effect by fluorescence based analysis; format: functional, organism-based
Influenza A virus [10] = assay: Antiviral activity against influenza A virus A/Udorn/1972 (H3N2) infected in MDCK cells assessed as reduction in cytopathic effect by DAPI staining based analysis; format: functional, organism-based
Influenza A virus [11] = assay: Antiviral activity against influenza A virus A/California/07/2009 (H1N1) infected in MDCK cells assessed as reduction in cytopathic effect by fluorescence based analysis; format: functional, organism-based
[12] = Cytotoxicity against HEK293T cells assessed as reduction in cell viability measured after 48 hrs by Cell-Titer Glo assay; format: toxicity, cell-based, HEK-293T; details: human
Influenza A virus [13] = assay: Antiviral activity against influenza A virus H5N1 (RG14) infected in MDCK cells assessed as reduction in cytopathic effect by DAPI staining based analysis; format: functional, organism-based
Influenza A virus [14] = assay: Antiviral activity against influenza A virus A/Brisbane/59/2009 (H1N1) infected in MDCK cells assessed as reduction in cytopathic effect by fluorescence based analysis; format: functional, organism-based
Influenza A virus [15] = assay: Antiviral activity against influenza A virus H5N1 (RG14) infected in MDCK cells assessed as reduction in cytopathic effect by fluorescence based analysis; format: functional, organism-based
Influenza A virus [16] = assay: Antiviral activity against influenza A virus A/Brisbane/59/2009 (H1N1) infected in MDCK cells assessed as reduction in cytopathic effect by DAPI staining based analysis; format: functional, organism-based
Influenza A virus [17] = assay: Antiviral activity against influenza A virus H1N1, A/PR/8/34; format: functional, organism-based
Influenza A virus [18] = assay: Antiviral activity against influenza A virus H1N1, A/California/7/2009; format: functional, organism-based
[19] = Cytotoxicity against MDCK cells assessed as reduction in cell viability; format: toxicity, cell-based, Canis lupus familiaris; details: dog
Influenza A virus [20] = assay: Antiviral activity against influenza A virus […], A/WSN/33; format: functional, organism-based
[21] = Cytotoxicity against MDCK cells assessed as reduction in cell viability measured after 72 hrs by fluorescence based assay; format: toxicity, Canis lupus familiaris; details: dog
Influenza A virus [22] = assay: Antiviral activity against influenza A virus A/WSN/1933 (H1N1) infected in MDCK cells assessed as reduction in cytopathic effect by fluorescence based analysis; format: functional, organism-based
Influenza A virus [23] = assay: Antiviral activity against Influenza A virus A/PR/8/34 (H1N1) infected in human A549 cells pretreated with cell for 3 hrs followed by viral infection and measured for 24 hrs; format: functional, organism-based
[24] = Cytotoxicity against human A549 cells incubated for 48 hrs by neutral red uptake assay; format: toxicity, cell-based
[25] = Cytotoxicity against MDCK cells assessed as reduction in cell viability measured after 72 hrs by MTT assay; format: toxicity, cell-based, Canis lupus familiaris; details: dog
Influenza A virus [26] = assay: Antiviral activity against influenza A virus H1N1,A/WSN/1933 infected in MDCK cells assessed as reduction in plaque formation incubated for 72 hrs by crystal violet staining based analysis; format: functional, organism-based; details: H1N1,A/WSN/1933, MDCK
Influenza A virus [27] = assay: Antiviral activity against influenza A virus H5N1,A/Vietnam/1194/2004 infected in MDCK cells assessed as reduction in plaque formation incubated for 72 hrs by crystal violet staining based analysis; format: functional, organism-based; details: H5N1,A/Vietnam/1194/2004, MDCK
Influenza A virus [28] = assay: Antiviral activity against Influenza A virus A/Brisbane/10/2007 (H3N2); format: functional, organism-based
Influenza B virus [29] = assay: Antiviral activity against Influenza B virus B/Victoria; format: functional, organism-based
Influenza B virus [30] = assay: Antiviral activity against Influenza B virus B/Yamagata; format: functional, organism-based
Influenza A virus [31] = assay: Antiviral activity against Influenza A virus A/PR/8/34 (H1N1); format: functional, organism-based
[32] = Cytotoxicity against MDCK cells incubated for 72 hrs by CCK-8 assay; format: toxicity, cell-based, Canis lupus familiaris; details: dog
Influenza A virus [33] = assay: Antiviral activity against influenza A H5N1 infected in MDCK cells assessed as viral growth inhibition measured for 12 to 72 hrs; format: functional, organism-based

SMILES: O=C(NC1CCCCCC1)c1cc2c(s1)-c1ccsc1CC2
- pEC50 (Influenza A virus [1]): 5.99
- CC50 [2]: > 100 µM
- CC50 (HEK-293T): > 100 µM
- pEC50 (Influenza A virus [3]): 5.94
- CC50 (A549): > 100 µM
- pEC50 (Influenza A virus [4]): 6.39

SMILES: C=C1Cc2cc(C(F)(F)F)ccc2C(=O)NCC(C)(C)/C(=N/OC)CCCCOC1=O
- pEC50 (Influenza A virus [5]): 5.64
- CC50 [6]: 211 µM

SMILES: Cc1onc(-c2ccccc2Cl)c1C(=O)N1CCN(c2ccc([N+](=O)[O-])cc2Cl)CC1
- pIC50 (Neuraminidase): 7.00
- pEC50 (Influenza A virus [7]): 5.92
- CC50 at 48 h [8]: > 100 µM
- pEC50 (Influenza A virus [9]): 6.15
- pEC50 (Influenza A virus [10]): 6.15
- pEC50 (Influenza A virus [11]): 5.38
- CC50 at 48 h [12]: > 100 µM
- pEC50 (Influenza A virus [13]): 6.49
- pEC50 (Influenza A virus [14]): 5.92
- pEC50 (Influenza A virus [15]): 6.49
- pEC50 (Influenza A virus [16]): 5.92

SMILES: CC(=O)c1cc(O)ccc1O[C@@H]1O[C@H](CO)[C@@H](O)[C@H](OC(=O)c2cc(O)c(O)c(O)c2)[C@H]1OC(=O)c1cc(O)c(O)c(O)c1
- pEC50 (Influenza A virus [17]): 4.51
- pEC50 (Influenza A virus [18]): 4.51
- CC50 [19]: > 1000 µM
- pEC50 (Influenza A virus [20]): 4.61

SMILES: CN(C)S(=O)(=O)N1CCCC(CNC(=O)c2cccc(C(F)(F)F)c2)C1 (stereo not given)
- CC50 at 72 h [21]: > 100 µM
- pEC50 (Influenza A virus [22]): 6.55

SMILES: CCc1ccc(NC(=O)COC(=O)c2ccc3ccccc3n2)cc1
- pEC50 (Influenza A virus [23]): 4.29
- CC50 at 48 h [24]: > 400 µM

SMILES: CCc1ccccc1N(CC(=O)Nc1cc(C)cc(C)c1)S(C)(=O)=O
- CC50 at 72 h [25]: > 100 µM
- pEC50 (Influenza A virus [26]): 8.15
- pEC50 (Influenza A virus [27]): 7.07

SMILES: COc1cccc(OC)c1C(=O)/C=C/c1nc(C)c(C)nc1C
- pEC50 (Influenza A virus [28]): 5.46
- CC50 [6]: 41.5 µM
- pEC50 (Influenza B virus [29]): 5.50
- pEC50 (Influenza B virus [30]): 5.62
- pEC50 (Influenza A virus [31]): 5.56

SMILES: CC(=O)c1cc(O)ccc1O[C@@H]1O[C@H](COC(=O)c2cc(O)c(O)c(O)c2)[C@@H](O)[C@H](OC(=O)c2cc(O)c(O)c(O)c2)[C@H]1O
- pEC50 (Influenza A virus [17]): 4.69
- pEC50 (Influenza A virus [18]): 4.54
- CC50 [19]: 964 µM
- pEC50 (Influenza A virus [20]): 4.93

SMILES: NC(=O)c1nc(F)cnc1O [FAVIPIRAVIR]
- pEC50 (Influenza A virus [17]): 4.43
- pEC50 (Influenza A virus [18]): 4.43
- CC50 [19]: > 1000 µM
- pEC50 (Influenza A virus [20]): 4.43

SMILES: O[C@H]1[C@H]2c3cc4c(cc3CN3CCC(=C[C@@H]1O)[C@H]23)OCO4 [LYCORINE]
- CC50 at 72 h [32]: 20.9 µM
- pEC50 (Influenza A virus [33]): > 6.34
